In US20090238808A1, “Process for the identification of novel enzyme interacting compounds” (priority 2005, published 2009):

Key:
Assay in all cases: Kinobeads elution with test compound, mouse brain lysate, MS
Assay type in all cases: binding
Settings in all cases: kinase released from kinobeads by specific elution
[1] = target: T1, p38a (Mus musculus, UniProt P47811)
T1 construct: from tissue; host or cells: mouse brain
Procedure, shortened: (§1)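 Read-out is mass-spectrometric identification of proteins released from kinobeads by non-modified test compound. Beads had captured mouse brain lysate proteins under near-physiological conditions; after washing, elution used 1.0 mM compound for 30 min at 4° C against a 2% DMSO or DMF control.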

[2] = target: ARG (Mus musculus, UniProt Q4JIM5)
Procedure, shortened: as §1

[3] = target: T2, EphB1 (Mus musculus, UniProt Q8CBF3)
T2 sequence (Q8CBF3 18-984): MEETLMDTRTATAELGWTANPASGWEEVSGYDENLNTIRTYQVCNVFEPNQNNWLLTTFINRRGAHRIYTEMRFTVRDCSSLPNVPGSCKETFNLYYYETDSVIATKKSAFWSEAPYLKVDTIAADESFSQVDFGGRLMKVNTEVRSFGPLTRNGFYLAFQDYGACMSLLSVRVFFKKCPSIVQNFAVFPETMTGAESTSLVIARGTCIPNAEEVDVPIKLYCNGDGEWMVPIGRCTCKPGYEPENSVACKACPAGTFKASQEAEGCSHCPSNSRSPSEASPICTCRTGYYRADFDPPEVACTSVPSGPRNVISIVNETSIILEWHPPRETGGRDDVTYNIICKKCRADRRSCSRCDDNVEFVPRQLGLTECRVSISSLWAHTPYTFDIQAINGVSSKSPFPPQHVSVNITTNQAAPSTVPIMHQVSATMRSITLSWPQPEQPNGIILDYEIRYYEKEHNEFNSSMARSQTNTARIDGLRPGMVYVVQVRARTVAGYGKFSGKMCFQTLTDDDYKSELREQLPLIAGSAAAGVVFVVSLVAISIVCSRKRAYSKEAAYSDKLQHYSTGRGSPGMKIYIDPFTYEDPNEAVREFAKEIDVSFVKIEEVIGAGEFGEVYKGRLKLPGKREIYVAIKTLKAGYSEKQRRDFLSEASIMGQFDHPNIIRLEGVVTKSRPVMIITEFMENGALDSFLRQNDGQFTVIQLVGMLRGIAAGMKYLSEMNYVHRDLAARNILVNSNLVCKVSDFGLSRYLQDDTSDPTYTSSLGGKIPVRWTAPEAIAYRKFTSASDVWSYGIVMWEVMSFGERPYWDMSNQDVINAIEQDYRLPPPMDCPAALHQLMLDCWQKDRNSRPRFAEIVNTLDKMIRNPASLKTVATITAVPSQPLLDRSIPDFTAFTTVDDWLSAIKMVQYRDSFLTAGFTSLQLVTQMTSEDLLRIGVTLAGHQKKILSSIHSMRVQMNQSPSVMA
Procedure, shortened: as §1

Sequence of ARG (Q4JIM5 whole entry): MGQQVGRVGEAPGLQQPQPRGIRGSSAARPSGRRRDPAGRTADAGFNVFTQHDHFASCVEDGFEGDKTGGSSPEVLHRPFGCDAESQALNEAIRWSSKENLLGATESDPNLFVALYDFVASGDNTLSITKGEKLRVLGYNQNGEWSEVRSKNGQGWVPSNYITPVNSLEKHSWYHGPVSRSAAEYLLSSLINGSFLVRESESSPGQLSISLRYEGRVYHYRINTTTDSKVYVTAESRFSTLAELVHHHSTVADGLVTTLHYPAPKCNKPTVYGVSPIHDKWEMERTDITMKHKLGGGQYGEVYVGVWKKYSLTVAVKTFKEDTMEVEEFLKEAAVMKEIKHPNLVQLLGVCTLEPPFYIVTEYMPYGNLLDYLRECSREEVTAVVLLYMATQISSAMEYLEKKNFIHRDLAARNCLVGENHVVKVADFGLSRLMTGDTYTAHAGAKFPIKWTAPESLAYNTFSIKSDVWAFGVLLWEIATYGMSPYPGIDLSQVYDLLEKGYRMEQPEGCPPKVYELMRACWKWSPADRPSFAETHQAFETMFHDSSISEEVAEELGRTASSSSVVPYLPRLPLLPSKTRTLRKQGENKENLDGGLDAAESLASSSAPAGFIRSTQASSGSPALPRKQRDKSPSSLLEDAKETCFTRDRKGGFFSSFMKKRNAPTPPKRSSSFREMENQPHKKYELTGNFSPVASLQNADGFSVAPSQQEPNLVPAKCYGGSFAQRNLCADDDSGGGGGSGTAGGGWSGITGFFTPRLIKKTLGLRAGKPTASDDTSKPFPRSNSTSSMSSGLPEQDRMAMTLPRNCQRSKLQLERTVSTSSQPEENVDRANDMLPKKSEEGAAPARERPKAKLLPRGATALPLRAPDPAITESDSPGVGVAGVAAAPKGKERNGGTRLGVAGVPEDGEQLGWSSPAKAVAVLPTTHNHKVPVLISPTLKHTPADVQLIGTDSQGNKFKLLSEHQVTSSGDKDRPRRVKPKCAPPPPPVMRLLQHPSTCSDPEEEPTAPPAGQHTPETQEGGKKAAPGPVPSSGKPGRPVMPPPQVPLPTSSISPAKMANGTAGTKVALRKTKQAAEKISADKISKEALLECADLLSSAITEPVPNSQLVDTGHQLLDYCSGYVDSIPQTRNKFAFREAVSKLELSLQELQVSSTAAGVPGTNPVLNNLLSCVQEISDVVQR
T1 sequence (P47811 whole entry): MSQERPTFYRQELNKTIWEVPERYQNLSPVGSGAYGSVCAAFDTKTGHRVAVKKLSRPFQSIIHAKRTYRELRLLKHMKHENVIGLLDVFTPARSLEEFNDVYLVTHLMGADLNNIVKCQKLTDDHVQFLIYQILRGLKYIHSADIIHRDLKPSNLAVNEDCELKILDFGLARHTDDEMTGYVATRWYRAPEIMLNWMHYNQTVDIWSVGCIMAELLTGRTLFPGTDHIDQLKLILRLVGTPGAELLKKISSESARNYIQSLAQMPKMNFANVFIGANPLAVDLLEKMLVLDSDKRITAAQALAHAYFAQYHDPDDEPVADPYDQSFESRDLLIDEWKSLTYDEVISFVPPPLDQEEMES

| Compound | mass spectrometry score, p38a [1] | number of identified peptides, p38a [1] | mass spectrometry score, ARG [2] | number of identified peptides, ARG [2] | mass spectrometry score, EphB1 [3] | number of identified peptides, EphB1 [3] |
| --- | --- | --- | --- | --- | --- | --- |
| Cn1c(=O)c(-c2c(Cl)cccc2Cl)cc2cnc(Nc3ccc(CN)cc3)cc21 [CZC7324] | 127 | 6 | 59 | 2 |  |  |
| CC(C)[C@H](CO)Nc1nc(Nc2ccc(C(=O)O)c(Cl)c2)c2ncn(C(C)C)c2n1 [Purvalanol B, reference compound] |  |  |  |  | 366 | 10 |
| CCCCCCCCCCCCOS(=O)(=O)[O-].[Na+] [SDS] | 104 | 7 | 452 | 28 | 180 | 10 |
